Assay results as given in patent US20060252708A1, “Compositions of flavones and long chain fatty acid derivatives isolated from plants and methods related thereto for the control of prostate disorders” (priority 2005, published 2006).

Key:
Format in all cases: cell-based
[1] = tested on: secreting PSA from LNCaP cells; experiment: ELISA of PSA secreted from LNCaP cells (inhibition of PSA secretion); conditions: for Rate of inhibition (%): Table 2, PSA secretion; for inhibition at 1 µg/mL: concentration 1 ug/ml; for inhibition at 3 µg/mL: concentration 3 ug/ml; for inhibition at 6.25 µg/mL: concentration 6.25 ug/ml
Procedure: For example, in cultured androgen-dependent prostate cancer cells as shown in An enzyme-linked immunoadsorbent assay was adopted to determine the level of secreting PSA from LNCaP cells, an androgen-dependent prostate epithelia cancer cells, by the above-mentioned flavones. At first, 100 μl polyclonal Ab at 4 μg/m was added to coat the microplate. They were placed for 12 hours at 4° C., and then washed by PBST and sealed the plate with PBST for 1 hour at 37° C. Supernatants from flavones or mock-treated cells were added into the plate to incubate at water bathed for 2 hours at 37° C. After washing, primary Ab at 200 ng/ml was added and incubated for 1 hour at 37° C. After washing, secondary Ab at 1:8000 was then added and incubated for 1 hour at room temperature. After washing, color reaction substrate was added and incubated for 10 min at dark, then added 2 N sulfuric acid to measure absorption at 492 nm.

androgen receptor (AR) = biological target: T1, androgen receptor (AR) (Homo sapiens, UniProt P10275); experiment: Androgen receptor activation, luciferase reporter gene system in U2OS cells; conditions: 10 nM andrusol, 24 hr incubation, FIG. 1 and FIG. 4
T1 construct: The full length AR cDNA was cloned from human's adipose tissue using PCR; expressed in transfected cells; host or cells: U2OS cells
T1 sequence (P10275 1-920): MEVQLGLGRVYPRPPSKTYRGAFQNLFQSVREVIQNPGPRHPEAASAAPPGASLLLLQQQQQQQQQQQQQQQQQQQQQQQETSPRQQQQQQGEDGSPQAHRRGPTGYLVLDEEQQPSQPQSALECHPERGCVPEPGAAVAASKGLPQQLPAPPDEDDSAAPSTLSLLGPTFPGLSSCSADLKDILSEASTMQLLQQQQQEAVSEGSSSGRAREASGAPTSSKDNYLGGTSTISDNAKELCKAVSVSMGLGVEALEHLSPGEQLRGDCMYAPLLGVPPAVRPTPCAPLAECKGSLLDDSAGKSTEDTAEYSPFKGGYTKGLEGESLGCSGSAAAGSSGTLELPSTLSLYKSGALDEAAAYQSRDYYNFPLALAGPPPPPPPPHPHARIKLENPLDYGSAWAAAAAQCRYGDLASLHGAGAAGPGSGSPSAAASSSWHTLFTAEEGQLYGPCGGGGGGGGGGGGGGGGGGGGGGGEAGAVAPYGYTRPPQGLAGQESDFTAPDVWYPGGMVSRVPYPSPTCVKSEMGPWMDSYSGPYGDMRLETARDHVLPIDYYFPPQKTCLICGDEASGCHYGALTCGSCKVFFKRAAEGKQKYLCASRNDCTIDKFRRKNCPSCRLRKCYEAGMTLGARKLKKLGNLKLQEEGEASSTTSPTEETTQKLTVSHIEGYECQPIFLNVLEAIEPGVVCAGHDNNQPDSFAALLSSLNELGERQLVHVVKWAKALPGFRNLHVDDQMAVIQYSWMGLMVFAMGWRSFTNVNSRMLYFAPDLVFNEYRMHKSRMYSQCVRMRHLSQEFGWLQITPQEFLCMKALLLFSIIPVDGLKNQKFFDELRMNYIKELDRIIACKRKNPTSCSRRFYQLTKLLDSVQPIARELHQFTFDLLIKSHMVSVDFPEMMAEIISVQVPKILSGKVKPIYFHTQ
Procedure: The activation of AR was performed using a luciferase reporting gene system. The full length AR cDNA was cloned from human's adipose tissue using PCR. The primer sequence 1 used was 5′-[…]-3′ (SEQ ID NO:1); the primer sequence 2 used was 5′-[…]-3′ (SEQ ID NO:2). The amplified PCR products were inserted into an expression vector, and then sequenced. The reporter genes were constructed using luciferase detected carrier pGL3-Promoter manufactured by Promega Ltd. Three copies of AR response element were inserted into upstream of pGL3-promoter (element sequence 3 used was 5′-[…] -3′) (SEQ ID NO:3). The co-transfection experiments were conducted in 96-well plates using U2OS cells. 24 hours after transfection, 10 nM andrusol, DMSO (0.1%), and testing compounds were added into cell culture for further 24 hr incubation.

[2] = biological target: T2, estrogen receptor-β (ERβ) (Homo sapiens, UniProt Q92731); experiment: Estrogen receptor-β activation, luciferase reporter gene system in U2OS cells; conditions: 10 nM estradiol, 24 hr incubation, FIG. 3
T2 construct: The full length ER-α and ER-β cDNA were separately cloned from human adipose tissue using PCR method; expressed in transfected cells; host or cells: U2OS cells
T2 sequence (Q92731 whole entry): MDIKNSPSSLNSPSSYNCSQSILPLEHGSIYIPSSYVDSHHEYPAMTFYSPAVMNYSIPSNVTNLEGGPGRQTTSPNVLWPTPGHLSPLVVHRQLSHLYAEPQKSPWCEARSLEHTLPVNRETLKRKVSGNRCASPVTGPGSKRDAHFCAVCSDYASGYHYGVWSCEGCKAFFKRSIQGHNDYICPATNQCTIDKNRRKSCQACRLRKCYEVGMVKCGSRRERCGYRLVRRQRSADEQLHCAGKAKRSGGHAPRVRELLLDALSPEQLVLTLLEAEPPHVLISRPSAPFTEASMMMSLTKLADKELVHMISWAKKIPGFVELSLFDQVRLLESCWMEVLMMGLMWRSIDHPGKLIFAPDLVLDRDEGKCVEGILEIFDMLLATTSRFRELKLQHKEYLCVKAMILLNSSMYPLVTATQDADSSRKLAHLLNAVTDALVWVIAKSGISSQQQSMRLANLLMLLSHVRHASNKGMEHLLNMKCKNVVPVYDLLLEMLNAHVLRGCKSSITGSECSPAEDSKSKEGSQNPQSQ
Procedure: (§1) The activation evaluation of the ERs were performed using a luciferase reporter gene system. The full length ER-α and ER-β cDNA were separately cloned from human adipose tissue using PCR method. The primer sequence 4 (ERα) used was 5′-[…]-3′ (SEQ ID NO:4); the primer sequence 5 (ERα) used was 5′-[…]-3′(SEQ ID NO:5); the primer sequence 6 (ERβ) used was 5′-[…]-3′ (SEQ ID NO:6); the primer sequence 7 (ERβ) used was 5′-[…]-3′(SEQ ID NO:7). The amplified PCR products were inserted into expression vector and confirmed by sequencing. The report genes were constructed by using luciferase detected carrier pGL3-Promoter from Promega Ltd. Three copies of ER response element were inserted into the upstream of pGL3-Promoter (sequence 8 used was 5′-[…] -3′ (SEQ ID NO:8)). The co-transfection experiments were conducted in 96-well plates using U2OS cells. 24 hours after transfection, 10 nM estradiol, DMSO (0.1%), and testing compounds were added into cell culture for further 24 hr incubation.

[3] = biological target: T3, estrogen receptor-α (ERα) (Homo sapiens, UniProt P03372); experiment: Estrogen receptor-α activation, luciferase reporter gene system in U2OS cells; conditions: 10 nM estradiol, 24 hr incubation, FIG. 2
T3 construct: The full length ER-α and ER-β cDNA were separately cloned from human adipose tissue using PCR method; expressed in transfected cells; host or cells: U2OS cells
T3 sequence (P03372 1-595): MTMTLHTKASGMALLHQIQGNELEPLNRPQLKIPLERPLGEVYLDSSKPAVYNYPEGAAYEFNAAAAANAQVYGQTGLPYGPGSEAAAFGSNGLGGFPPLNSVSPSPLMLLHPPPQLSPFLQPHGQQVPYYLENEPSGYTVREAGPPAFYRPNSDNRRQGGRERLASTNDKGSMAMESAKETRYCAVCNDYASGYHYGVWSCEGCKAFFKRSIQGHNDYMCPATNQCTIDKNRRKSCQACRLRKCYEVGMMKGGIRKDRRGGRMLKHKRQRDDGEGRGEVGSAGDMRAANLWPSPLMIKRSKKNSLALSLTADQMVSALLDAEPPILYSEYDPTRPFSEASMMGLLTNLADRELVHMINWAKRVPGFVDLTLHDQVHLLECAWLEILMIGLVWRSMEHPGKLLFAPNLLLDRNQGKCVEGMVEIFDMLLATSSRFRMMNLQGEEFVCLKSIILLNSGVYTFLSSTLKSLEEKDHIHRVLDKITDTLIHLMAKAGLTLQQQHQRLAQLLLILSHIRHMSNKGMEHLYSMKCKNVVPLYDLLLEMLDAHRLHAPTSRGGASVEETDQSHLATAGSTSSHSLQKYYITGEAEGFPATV
Procedure: as §1

[4] = Homo sapiens, PSA secretion, read-out: Rate of inhibition (%)
[5] = Homo sapiens, PSA secretion, concentration 12.5 ug/ml, read-out: Rate of inhibition (%)
[6] = Homo sapiens, PSA secretion, concentration 25 ug/ml, read-out: Rate of inhibition (%)
[7] = Homo sapiens, PSA secretion, concentration 50 ug/ml, read-out: Rate of inhibition (%)

Row | Compound | Rate of inhibition (%) ([1]; concentration 5 ug/ml) | Rate of inhibition (%) ([1]; concentration 12.5 ug/ml) | Rate of inhibition (%) ([1]; concentration 25 ug/ml) | Rate of inhibition (%) ([1]; concentration 50 ug/ml) | Inhibition of androgen receptor (AR) activation (androgen receptor (AR)) | inhibition at 1 µg/mL [1, 4] [%] | inhibition at 3 µg/mL [1, 4] [%] | inhibition at 6.25 µg/mL [1, 4] [%] | inhibition at 12.5 µg/mL [1, 5] [%] | inhibition at 25 µg/mL [1, 6] [%] | inhibition at 50 µg/mL [1, 7] [%] | Effect on estrogen receptor-β (ERβ) activation [2] | Effect on estrogen receptor-α (ERα) activation [3] | further results
1 | CCC=CCC=CCC=CCCCCCCCC(=O)NCCO [Long chain amide, N-(2-ethoxyl)-9,12,15-linolenamide] | 9.7 | 31 | 63 | 71 | Inhibition of androgen receptor (AR) activation |  |  |  |  |  |  |  |  | Rate of inhibition (%) ([1]; concentration 20 ug/ml): 52%
2 | CCC=CCC=CCC=CCCCCCCCC(=O)OC[C@@]1(O)O[C@H](CO)[C@@H](O)[C@@H]1O [Octadecatrienoic acid fructoside, 9,12,15-octadecatrienoic acid 1-O-β-D-fructoside] | 23 | 57 | 76 |  | Inhibition of androgen receptor (AR) activation |  |  |  |  |  |  |  |  | Rate of inhibition (%) ([1]; concentration 10 ug/ml): 40%
3 | O=c1c(O)c(-c2ccc(O)cc2)oc2cc(O)cc(O)c12 [kaempferol] |  |  |  |  |  | 53 | 60 | 69 | 65 | 66 | 89 |  |  | 
4 | O=c1cc(-c2ccc(O)c(O)c2)oc2cc(O)cc(O)c12 [luteolin] |  |  |  |  | Inhibition of androgen receptor (AR) activation | 37 | 48 |  |  |  |  | Inhibition | Inhibition | inhibition at 10 µg/mL ([1]; Homo sapiens, PSA secretion, concentration 10 ug/ml, read-out: Rate of inhibition (%)): 57%; inhibition at 20 µg/mL ([1]; Homo sapiens, PSA secretion, concentration 20 ug/ml, read-out: Rate of inhibition (%)): 67%; inhibition at 40 µg/mL ([1]; Homo sapiens, PSA secretion, concentration 40 ug/ml, read-out: Rate of inhibition (%)): 100%
5 | O=C1C[C@@H](c2ccc(O)cc2)Oc2cc(O)cc(O)c21 [naringenin] |  |  |  |  | Inhibition of androgen receptor (AR) activation |  |  | 78 | 84 | 87 | 88 | Inhibition | Inhibition | 
6 | hexadecanoic 1-O-β-D-fructoside [Hexadecanoic fructoside] | 4.5 | 8.4 | 26 | 42 | Inhibition of androgen receptor (AR) activation |  |  |  |  |  |  |  |  | Rate of inhibition (%) ([1]; concentration 100 ug/ml): 76%
